Source: ChEMBL document CHEMBL1201862, “PubChem BioAssay data set” (2004)
Each block holds one molecule with its values, some of them ahead of it. The source made the active and inactive calls.

Tests used:
[1] = target: SUMO E1/E2 (Homo sapiens, UniProt P63279+Q9UBE0+Q9UBT2); assay: SAR analysis of SUMOylation using HTRF in an in-Vitro dose response assay. [Related pubchem assays (depositor defined):AID2006, AID2011, AID2018, AID2069, AID2658]; format: functional
[2] = target: T1, Voltage-gated N-type calcium channel alpha-1B subunit/Amyloid beta A4 precursor protein-binding family A member 1 (Homo sapiens, UniProt Q00975+Q02410); assay: disruptors of Mint-PDZ/N-type channel peptide interaction – biochemical, HTRF, set 2, SAR follow-up (AID 434980); format: functional
T1 sequence (Q00975 whole entry): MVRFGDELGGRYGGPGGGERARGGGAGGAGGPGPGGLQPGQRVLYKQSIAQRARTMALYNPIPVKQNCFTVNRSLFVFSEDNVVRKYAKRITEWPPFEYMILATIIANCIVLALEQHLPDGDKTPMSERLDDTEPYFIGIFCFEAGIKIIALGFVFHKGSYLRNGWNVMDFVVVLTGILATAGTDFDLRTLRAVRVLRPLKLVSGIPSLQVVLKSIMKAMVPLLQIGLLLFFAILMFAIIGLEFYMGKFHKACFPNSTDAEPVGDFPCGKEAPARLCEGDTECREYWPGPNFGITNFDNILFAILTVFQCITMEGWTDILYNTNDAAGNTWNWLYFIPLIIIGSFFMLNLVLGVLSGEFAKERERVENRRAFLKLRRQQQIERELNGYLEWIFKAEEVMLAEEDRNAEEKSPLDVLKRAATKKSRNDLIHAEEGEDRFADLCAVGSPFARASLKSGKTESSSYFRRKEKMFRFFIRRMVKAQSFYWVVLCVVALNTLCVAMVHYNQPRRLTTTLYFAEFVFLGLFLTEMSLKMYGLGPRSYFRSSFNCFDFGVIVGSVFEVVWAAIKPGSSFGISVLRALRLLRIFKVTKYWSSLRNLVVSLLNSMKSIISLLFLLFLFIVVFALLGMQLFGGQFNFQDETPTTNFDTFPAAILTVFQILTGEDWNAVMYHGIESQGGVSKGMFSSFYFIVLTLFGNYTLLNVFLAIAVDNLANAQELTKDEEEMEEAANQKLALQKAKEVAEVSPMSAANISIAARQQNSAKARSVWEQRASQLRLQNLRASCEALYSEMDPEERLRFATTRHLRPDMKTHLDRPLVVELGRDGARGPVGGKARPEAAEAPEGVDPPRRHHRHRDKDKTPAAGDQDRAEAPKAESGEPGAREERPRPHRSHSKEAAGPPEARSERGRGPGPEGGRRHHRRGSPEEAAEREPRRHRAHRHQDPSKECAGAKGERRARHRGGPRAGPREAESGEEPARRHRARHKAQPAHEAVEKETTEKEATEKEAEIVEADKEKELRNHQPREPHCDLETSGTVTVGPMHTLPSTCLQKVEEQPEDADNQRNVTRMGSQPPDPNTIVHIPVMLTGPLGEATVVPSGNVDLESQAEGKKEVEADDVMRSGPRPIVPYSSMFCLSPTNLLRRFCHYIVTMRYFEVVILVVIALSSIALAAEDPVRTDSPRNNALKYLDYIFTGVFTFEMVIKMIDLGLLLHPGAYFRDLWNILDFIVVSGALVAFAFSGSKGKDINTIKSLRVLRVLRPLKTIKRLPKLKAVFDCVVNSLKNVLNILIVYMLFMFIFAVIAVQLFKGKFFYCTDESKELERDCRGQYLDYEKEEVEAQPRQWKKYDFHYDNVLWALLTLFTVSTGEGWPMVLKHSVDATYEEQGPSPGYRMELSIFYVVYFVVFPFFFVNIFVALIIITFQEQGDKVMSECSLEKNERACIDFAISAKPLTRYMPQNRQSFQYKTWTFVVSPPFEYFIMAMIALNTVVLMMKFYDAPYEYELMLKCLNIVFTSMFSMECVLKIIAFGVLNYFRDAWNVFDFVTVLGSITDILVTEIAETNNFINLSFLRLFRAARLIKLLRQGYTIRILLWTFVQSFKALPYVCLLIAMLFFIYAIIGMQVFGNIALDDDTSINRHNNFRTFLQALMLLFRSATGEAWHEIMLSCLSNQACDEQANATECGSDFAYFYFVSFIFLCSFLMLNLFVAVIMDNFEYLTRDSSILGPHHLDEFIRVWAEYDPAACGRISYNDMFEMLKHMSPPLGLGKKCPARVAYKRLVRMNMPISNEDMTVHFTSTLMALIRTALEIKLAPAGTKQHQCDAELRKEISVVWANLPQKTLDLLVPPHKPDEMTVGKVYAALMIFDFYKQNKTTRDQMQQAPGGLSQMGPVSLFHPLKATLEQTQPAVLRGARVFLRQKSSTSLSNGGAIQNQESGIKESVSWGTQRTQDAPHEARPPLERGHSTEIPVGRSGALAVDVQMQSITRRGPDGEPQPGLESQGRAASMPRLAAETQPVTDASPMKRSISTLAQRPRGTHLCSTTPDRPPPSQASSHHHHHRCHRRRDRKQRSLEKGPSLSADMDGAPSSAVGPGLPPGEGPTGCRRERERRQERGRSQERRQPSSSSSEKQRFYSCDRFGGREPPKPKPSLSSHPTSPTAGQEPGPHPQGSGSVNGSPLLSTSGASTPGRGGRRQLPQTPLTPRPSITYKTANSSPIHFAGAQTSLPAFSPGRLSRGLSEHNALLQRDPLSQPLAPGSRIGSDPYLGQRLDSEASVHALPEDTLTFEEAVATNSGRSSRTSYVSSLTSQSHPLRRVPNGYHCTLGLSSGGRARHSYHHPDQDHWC
T1 sequence (Q02410 whole entry): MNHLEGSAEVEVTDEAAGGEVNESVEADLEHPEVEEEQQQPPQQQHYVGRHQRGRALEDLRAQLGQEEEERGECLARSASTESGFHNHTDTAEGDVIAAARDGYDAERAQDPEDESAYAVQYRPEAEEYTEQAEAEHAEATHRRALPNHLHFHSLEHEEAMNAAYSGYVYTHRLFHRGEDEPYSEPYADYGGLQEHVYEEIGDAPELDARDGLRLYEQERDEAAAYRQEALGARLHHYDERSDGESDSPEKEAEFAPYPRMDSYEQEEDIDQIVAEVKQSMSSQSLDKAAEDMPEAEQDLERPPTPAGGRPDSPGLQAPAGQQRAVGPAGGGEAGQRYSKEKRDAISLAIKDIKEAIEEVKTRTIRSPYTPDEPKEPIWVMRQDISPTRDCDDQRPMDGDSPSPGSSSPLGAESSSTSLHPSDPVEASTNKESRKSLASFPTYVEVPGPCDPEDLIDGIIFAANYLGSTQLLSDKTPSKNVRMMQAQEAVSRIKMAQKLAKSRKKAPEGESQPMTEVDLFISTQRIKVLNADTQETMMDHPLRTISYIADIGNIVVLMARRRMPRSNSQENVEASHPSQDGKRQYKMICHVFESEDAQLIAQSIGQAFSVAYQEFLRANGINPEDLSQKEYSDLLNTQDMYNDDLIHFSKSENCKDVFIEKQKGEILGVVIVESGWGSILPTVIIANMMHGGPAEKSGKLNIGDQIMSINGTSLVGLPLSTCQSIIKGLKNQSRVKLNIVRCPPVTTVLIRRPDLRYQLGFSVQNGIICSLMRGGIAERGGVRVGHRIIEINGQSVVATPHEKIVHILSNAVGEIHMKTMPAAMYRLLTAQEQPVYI

[3] = target: T1, Voltage-gated N-type calcium channel alpha-1B subunit/Amyloid beta A4 precursor protein-binding family A member 1; assay: disruptors of Mint-PDZ/N-type channel peptide interaction – biochemical, HTRF, SAR follow-up (AID 2489); format: functional
[4] = target: Potassium voltage-gated channel subfamily KQT member 2 (Rattus norvegicus, UniProt O88943); assay: rat KCNQ2 current potentiators – automated patch clamp, KCNQ2-CHO cells, SAR follow-up (AID 493113); format: functional
[5] = target: Intestinal-type alkaline phosphatase (Mus musculus, UniProt P24822); assay: PubChem AID 488875; format: functional
[6] = target: T2, Intestinal-type alkaline phosphatase (Homo sapiens, UniProt P09923); assay: human intestinal alkaline phosphatase activators, dose response, biochemical, luminescence, uHTS hits (AID 463120); format: functional
T2 sequence (P09923 whole entry): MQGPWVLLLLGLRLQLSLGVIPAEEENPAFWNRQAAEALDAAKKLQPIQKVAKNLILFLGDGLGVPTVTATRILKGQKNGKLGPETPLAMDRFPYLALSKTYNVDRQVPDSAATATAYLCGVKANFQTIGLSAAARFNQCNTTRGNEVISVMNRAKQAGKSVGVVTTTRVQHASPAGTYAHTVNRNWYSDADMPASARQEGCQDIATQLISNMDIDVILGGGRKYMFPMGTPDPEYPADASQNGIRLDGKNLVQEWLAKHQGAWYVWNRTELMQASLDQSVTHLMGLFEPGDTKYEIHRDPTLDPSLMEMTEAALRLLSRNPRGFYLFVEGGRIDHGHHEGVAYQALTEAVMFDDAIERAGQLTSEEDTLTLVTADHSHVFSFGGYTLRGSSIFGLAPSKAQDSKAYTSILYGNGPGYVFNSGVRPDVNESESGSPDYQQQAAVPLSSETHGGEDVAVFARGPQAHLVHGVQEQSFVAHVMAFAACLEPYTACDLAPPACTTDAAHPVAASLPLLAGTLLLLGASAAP

[7] = target: T2, Intestinal-type alkaline phosphatase; assay: activation of human intestinal alkaline phosphatase – biochemical, luminescent, uHTS hits, set 2, dose response (AID 488817); format: functional;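 note: potency of activators that raise enzyme activity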
[8] = target: T3, Alkaline phosphatase, tissue-nonspecific isozyme (Homo sapiens, UniProt P05186); assay: activation of tissue-nonspecific alkaline phosphatase – biochemical, TNAP isozyme, human IAP uHTS hits, selectivity assay for human IAP activator project, dose response (AID 488886); format: functional;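 note: potency of compounds raising TNAP activity as a selectivity check on IAP activators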
T3 sequence (P05186 whole entry): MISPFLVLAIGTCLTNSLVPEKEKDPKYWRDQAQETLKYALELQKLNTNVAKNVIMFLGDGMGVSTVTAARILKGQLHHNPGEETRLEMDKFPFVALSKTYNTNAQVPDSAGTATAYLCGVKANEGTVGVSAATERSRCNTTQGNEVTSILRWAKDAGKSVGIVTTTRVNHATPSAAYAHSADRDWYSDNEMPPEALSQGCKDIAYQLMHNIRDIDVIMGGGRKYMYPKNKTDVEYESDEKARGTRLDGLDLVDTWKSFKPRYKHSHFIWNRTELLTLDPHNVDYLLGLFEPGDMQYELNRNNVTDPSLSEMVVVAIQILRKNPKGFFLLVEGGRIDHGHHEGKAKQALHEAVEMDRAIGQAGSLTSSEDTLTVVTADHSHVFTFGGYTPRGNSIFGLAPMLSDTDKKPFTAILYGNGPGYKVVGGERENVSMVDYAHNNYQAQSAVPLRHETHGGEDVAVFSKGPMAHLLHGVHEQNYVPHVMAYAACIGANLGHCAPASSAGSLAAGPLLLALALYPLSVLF

[9] = tested on: INS1; assay: INS-1E survival protection against cytokine death – cell-based, luminescence, retest, dose response (AID 449756); format: functional; conditions: Rattus norvegicus;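 note: cell death triggered by IL-1 beta plus TNF-alpha plus IFN-gamma mixture; protective hits raise ATP signal compared with cytokine alone wells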
[10] = target: T4, Cytochrome P450 1A2 (Homo sapiens, UniProt P05177);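 note: PubChem cytochrome P450 panel assay, CYP1A2 panel member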
T4 sequence (P05177 whole entry): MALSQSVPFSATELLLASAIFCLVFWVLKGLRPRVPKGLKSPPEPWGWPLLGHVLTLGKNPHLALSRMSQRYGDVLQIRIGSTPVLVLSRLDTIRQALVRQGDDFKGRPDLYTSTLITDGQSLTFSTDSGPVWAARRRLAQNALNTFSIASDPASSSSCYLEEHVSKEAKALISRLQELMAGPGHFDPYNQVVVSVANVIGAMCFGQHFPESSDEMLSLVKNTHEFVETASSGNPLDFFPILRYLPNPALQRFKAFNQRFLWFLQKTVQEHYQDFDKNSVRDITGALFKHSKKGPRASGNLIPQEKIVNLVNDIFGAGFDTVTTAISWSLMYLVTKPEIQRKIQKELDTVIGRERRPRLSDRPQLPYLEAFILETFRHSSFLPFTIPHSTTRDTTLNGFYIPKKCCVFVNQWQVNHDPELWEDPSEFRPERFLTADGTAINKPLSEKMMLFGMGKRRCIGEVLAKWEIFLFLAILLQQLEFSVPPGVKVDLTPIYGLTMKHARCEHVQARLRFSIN

Chain of SUMO E1/E2 (Q9UBE0 whole entry): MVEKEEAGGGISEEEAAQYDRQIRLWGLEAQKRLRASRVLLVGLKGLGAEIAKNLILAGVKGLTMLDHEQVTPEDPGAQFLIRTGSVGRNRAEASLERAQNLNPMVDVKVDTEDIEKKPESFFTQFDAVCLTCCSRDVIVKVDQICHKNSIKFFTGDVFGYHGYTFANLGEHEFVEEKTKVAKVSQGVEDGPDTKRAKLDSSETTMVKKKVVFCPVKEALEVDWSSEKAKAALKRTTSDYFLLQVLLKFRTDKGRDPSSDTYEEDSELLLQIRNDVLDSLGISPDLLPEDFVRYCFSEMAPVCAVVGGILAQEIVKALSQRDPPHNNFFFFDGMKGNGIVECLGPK
Chain of SUMO E1/E2 (Q9UBT2 whole entry): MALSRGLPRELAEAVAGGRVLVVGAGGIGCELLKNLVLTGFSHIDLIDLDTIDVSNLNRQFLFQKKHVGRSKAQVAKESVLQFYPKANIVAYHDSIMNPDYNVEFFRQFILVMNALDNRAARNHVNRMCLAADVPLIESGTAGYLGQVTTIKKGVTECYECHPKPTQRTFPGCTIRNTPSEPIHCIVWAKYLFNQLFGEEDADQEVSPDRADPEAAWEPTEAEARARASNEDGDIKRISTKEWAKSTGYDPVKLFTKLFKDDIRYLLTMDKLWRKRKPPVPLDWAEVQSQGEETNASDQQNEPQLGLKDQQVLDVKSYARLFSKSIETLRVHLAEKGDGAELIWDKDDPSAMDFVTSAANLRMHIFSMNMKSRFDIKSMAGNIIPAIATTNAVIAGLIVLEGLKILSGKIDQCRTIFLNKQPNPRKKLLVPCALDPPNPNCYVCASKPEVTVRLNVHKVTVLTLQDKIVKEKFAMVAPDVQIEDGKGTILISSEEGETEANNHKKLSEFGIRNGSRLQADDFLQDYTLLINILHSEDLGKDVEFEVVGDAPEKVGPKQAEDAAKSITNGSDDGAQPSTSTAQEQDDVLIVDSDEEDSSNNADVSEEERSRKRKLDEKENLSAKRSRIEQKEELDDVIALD
Chain of SUMO E1/E2 (P63279 whole entry): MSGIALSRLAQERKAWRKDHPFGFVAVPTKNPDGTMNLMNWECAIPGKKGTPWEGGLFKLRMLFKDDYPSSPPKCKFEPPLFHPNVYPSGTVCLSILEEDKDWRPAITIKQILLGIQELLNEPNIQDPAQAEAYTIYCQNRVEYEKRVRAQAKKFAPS

IC50 [1]: 6.04 µM (active)
IC50 [2]: 5.49 µM (active)
IC50 [3]: > 56.8 µM (inactive)
SMILES: COc1ccc(CNC(=O)COC(=O)c2cc(-c3ccco3)nc3ccccc23)cc1OC

EC50 [4]: 0.6 µM (active)
SMILES: O=C(Nc1ccc2ccccc2c1)C1CC2CCC1C2 (stereo not given)

SMILES: Cc1ccc(O)c(/C=N/NC(=O)c2[nH]ncc2Br)c1
EC50 [5]: > 100 µM (inactive)
EC50 [6]: 7.61 µM (active)
EC50 [7]: 47.6 µM (active)
EC50 [8]: 49.6 µM (active)
AC50 [9]: 33.5 µM (active)

AC50 [10]: inactive
SMILES: C[C@@H]1COc2c(N3CCN(C)CC3)c(F)cc3c(=O)c(C(=O)O)cn1c23 [DEXTROFLOXACINE]
